The values that follow come from PubChem BioAssay AID2060488 (Molecular Pharmacology Branch, DTP, NCI, 2025).

Where “and” joins values, the source holds several entries; their conditions need not be identical. Equal entries are not always repeated.

This test relates to 966289-007-R4-J1-PDC complex spheroid viability. The experiment in a line: Anticancer human tumor 966289-007-R4-J1-PDC patient-derived pancreatic adenocarcinoma cell line growth inhibition [GQUAD]. To be noted: for viability, T/C: stronger effect = lower value. The source says:
DNA G-quadruplex Stabilizer Agents in Combinations in Complex Spheroids
A high-throughput screen of multi-cell type tumor spheroids was designed to identify active combinations of DNA G-quadruplex stabilizer agents and targeted small molecules. Complex spheroids include a stromal component modeled by human endothelial cells (HUVEC) and fibroblasts modeled by human mesenchymal stem cells (MSCs). The concentration ranges selected for each drug and investigational agent were based upon clinically achievable concentrations if the clinical Cmax of the agent was known.
Compounds. The drugs and investigational agents: pidnarulex (CX-5461; NSC782164), APTO-253 (NSC789042), BRACO-19 (NSC847499), peposertib (NSC802822), ceralasertib (NSC780249), elimusertib (NSC800525), camonsertib (NSC841442), AZD-1390 (NSC803789), olaparib (NSC753686), talazoparib (NSC767125), ART-558 (NSC835418), sotorasib (NSC818433), MRTX-1133 (NSC836407), SN-38 (NSC673596), topotecan (NSC609699), etoposide (NSC141540), doxorubicin (NSC123127), gemcitabine (NSC613327), 5-fluorouracil (NSC19893), paclitaxel (NSC125973), vemurafenib (NSC761431), panobinostat (NSC761190), R-306465 (JNJ-16241199; NSC773264), adavosertib (NSC754352), TP-3654 (NSC805149), carboplatin (NSC241240), KSQ-4279 (NSC840948), and staurosporine (NSC755774) were obtained from the National Cancer Institute (NCI) Developmental Therapeutics Program Chemical Repository (34). The FDA-approved anticancer drug set is available from the NCI Developmental Therapeutics Program. […] The stock solutions were prepared in dimethyl sulfoxide (DMSO, Sigma-Aldrich, St. Louis, MO, cat. D2650) at 800-fold the tested concentration and stored at -70 degrees C prior to their use. All drugs and investigational agents were tested over a range starting from a high concentration at or near the clinical Cmax and decreasing in half-log increments. If the clinical Cmax for an agent had not been determined, the highest concentration tested was 10 microM.
2.3 Cell Culture. All cells were maintained in an incubator at 37 degrees C and 5% CO2 with 95% humidity. The PDC lines were cultured according to standard operating procedures established by the NCI PDMR. All PDCs were thawed and cultured in Matrigel-coated flasks prepared with a working solution of 1X Ham's F-12 nutrient mix, without supplementation (Invitrogen, cat. 11765054), 100 U/mL penicillin-streptomycin (Invitrogen, cat. 15140122), and 2.5% Matrigel (Corning Inc., cat. 354248) for the first three passages. The 857933-349-R-J2-PDC line was cultured in 6C/Colon 1B media, which includes advanced DMEM/F-12 (Thermo Fisher Scientific, cat. 12634028), 10 mM HEPES (Thermo Fisher Scientific, cat. 15630080), 1X GlutaMAX supplement (Thermo Fisher Scientific, cat. 35050061), 0.1 mg/mL primocin (InvivoGen, cat. ant-pm-2), 10% defined fetal bovine serum, heat inactivated (HyClone Laboratories Inc., cat. SH30070.03HI), 50% L-WRN conditioned media (ATCC, cat. CRL-3276), 1.25 mM N-Acetyl-L-cysteine (Sigma-Aldrich, cat. A9165), 10 mM nicotinamide (Sigma-Aldrich, cat. N0636), 1X B-27 supplement (Thermo Fisher Scientific, cat. 17504044), 1X N-2 supplement (Thermo Fisher Scientific, cat. 17502048), 10 microM Y-27632 dihydrochloride (Tocris Bioscience, cat. 1254), and 50 ng/mL human EGF recombinant protein (Thermo Fisher Scientific, cat. PHG0311). The 485176-168-R4-J1-PDC line was cultured in Panc media, which includes all 6C/Colon 1B media components plus 100 ng/mL human FGF-10 (Thermo Fisher Scientific, cat. 100-26), 500 nM SB-431542 (Selleckchem, cat. S1067), and gastrin (Tocris, cat. 3006).
[…]
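Further: spheroids exposed to the agents for seven days before readout.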
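Wherever viability, T/C is given: percent viability relative to DMSO vehicle control wells taken as 100%.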

A word on the viability, T/C: it is the result in the treated group divided by that in the control group, in per cent. As usually defined, the IC50 is the midpoint of a concentration-inhibition curve. `COc1cc(C2c3cc4c(cc3C(OC3OC5COC(C)OC5C(O)C3O)C3COC(=O)C23)OCO4)cc(OC)c1O` (stereo unspecified): the viability, T/C (compound 0.0316 µM) was 106% (2×) and 108%; the viability, T/C (compound 0.1 µM) was 108% and 111% and 110%; the viability, T/C (compound 0.316 µM) was 41.2% and 40.8% and 50.3%; the viability, T/C (compound 1 µM) is 5.14% and 5.7% and 8.75%; the viability, T/C (compound 3.16 µM) was 1.52% and 0.98% and 2.8%; the viability, T/C (compound 10 µM) is 0.83% and 0.61% and 0.86%. Moreover, the IC50 (curve of compound) is 271 nM and 320 nM.
Take `COc1ccc([C@@H](O)c2cc(-c3ncnc4cc(N5CCOCC5)ccc34)c(F)cc2Cl)nn1`: the viability, T/C runs as follows: (compound 0.0316 µM) 103% and 98.9% and 97.2%; (compound 0.1 µM) 92.9% and 100% and 92%; (compound 0.316 µM) 110% and 106% and 105%; (compound 1 µM) 103% (2×) and 108%; (compound 3.16 µM) 113% and 110% and 126%; (compound 10 µM) 90.2% and 103% and 108%. For the same molecule, for the setting “curve of compound”, the IC50 is above 10000 nM.
Turning to `COc1cccc2c1C(=O)c1c(O)c3c(c(O)c1C2=O)CC(O)(C(=O)CO)CC3OC1CC(N)C(O)C(C)O1` (stereo unspecified), the viability, T/C (compound 0.0316 µM) was 112% and 114% and 102%; the viability, T/C (compound 0.1 µM) is 12.9% and 19.6% and 8.98%; the viability, T/C (compound 0.316 µM) is 3.19% and 2.75% and 1.72%; the viability, T/C (compound 1 µM) was 0.71% and 0.91% and 0.56%; the viability, T/C (compound 3.16 µM) is 0.27% and 0.41% and 0.16%; the viability, T/C (compound 10 µM) is 0.4% and 0.47% and 0.34%. For the same molecule, the IC50 (curve of compound) was 65 nM and 69 nM and 60.2 nM.
For `Cc1[nH]c2ccc(F)cc2c1-c1nc2c3cccnc3c3ncccc3c2[nH]1`, the viability, T/C is, setting by setting: (compound 0.0316 µM) 104% [middle of 11 runs]; (compound 0.1 µM) 108% [middle of 11 runs]; (compound 0.316 µM) 109% [middle of 11 runs]; (compound 1 µM) 109% [middle of 11 runs]; (compound 3.16 µM) 106% [middle of 11 runs]; (compound 10 µM) 98.2% [middle of 11 runs]. Also, the IC50 runs as follows: (compound alone, run of 03/18/2024) above 10000 nM; (compound alone, run of 03/26/2024) above 10000 nM.
With `Cc1[nH]c2ccccc2c1CCNCc1ccc(/C=C/C(=O)NO)cc1`, the viability, T/C runs as follows: (compound 0.000999 µM) 110% and 92.2% and 99.7%; (compound 0.00316 µM) 100% and 103% and 113%; (compound 0.00999 µM) 104% and 91% and 101%; (compound 0.0316 µM) 100% and 97.8% and 99.5%; (compound 0.0999 µM) 31.1% and 30.7% and 17.7%; (compound 0.316 µM) 4.6% and 4.59% and 3.46%. Also, the IC50 (curve of compound) was 73 nM and 71.1 nM and 63.4 nM.
Consider `Cc1cccc(N(C)C(=O)C2C(O)CCN2c2nc(C)cc(C(F)(F)F)c2C#N)c1` (stereo unspecified), for which the viability, T/C is 92% and 111% and 99.9% (compound 0.0316 µM); 98.4% and 97.2% and 95.8% (compound 0.1 µM); 103% (2×) and 109% (compound 0.316 µM); 94.9% and 98% and 99.5% (compound 1 µM); 107% and 106% and 89.2% (compound 3.16 µM); 102% and 107% (2×) (compound 10 µM). The IC50 (curve of compound) is above 10000 nM.
Regarding `Cn1ncnc1[C@H]1c2n[nH]c(=O)c3cc(F)cc(c23)N[C@@H]1c1ccc(F)cc1`, the viability, T/C was 105% and 99.3% and 95.6% (compound 0.000999 µM); 91.2% and 98.8% and 98.2% (compound 0.00316 µM); 113% and 105% and 112% (compound 0.00999 µM); 92.4% and 104% and 99.6% (compound 0.0316 µM); 48.8% and 72.8% and 46.1% (compound 0.0999 µM); 22.8% and 22.4% and 18% (compound 0.316 µM). Moreover, for the setting “curve of compound”, the IC50 is 96.1 nM and 168 nM and 91.9 nM.
`Nc1ccn(C2OC(CO)C(O)C2(F)F)c(=O)n1` (stereo unspecified): the viability, T/C is, setting by setting: (compound 0.0316 µM) 6.63% and 12% and 8.01%; (compound 0.1 µM) 0.75% and 1.27% and 0.79%; (compound 0.316 µM) 0.96% and 0.9% and 0.65%; (compound 1 µM) 0.7% and 0.97% and 0.68%; (compound 3.16 µM) 0.83% and 1.32% and 0.61%; (compound 10 µM) 0.79% and 1.07% and 0.63%. Further, the IC50 (curve of compound) was below 31.6 nM.
Turning to `O=C(c1cc(Cc2n[nH]c(=O)c3ccccc23)ccc1F)N1CCN(C(=O)C2CC2)CC1`, the viability, T/C is 111% and 99.1% and 104% (compound 0.0316 µM); 98.8% and 108% and 98.4% (compound 0.1 µM); 109% and 105% and 111% (compound 0.316 µM); 106% and 108% and 112% (compound 1 µM); 67.5% and 82.8% and 61.1% (compound 3.16 µM); 11.2% and 10.4% and 14.9% (compound 10 µM). Also, the 50% inhibitory concentration (IC50) (curve of compound) was 4520 nM and 5320 nM and 4180 nM.
Consider `O=c1[nH]cc(F)c(=O)[nH]1`, for which the viability, T/C by setting is: (compound 0.0316 µM) 102% and 98.6% and 93.7%; (compound 0.1 µM) 102% and 85.7% and 101%; (compound 0.316 µM) 14% and 12.6% and 16.4%; (compound 1 µM) 6.4% and 6.04% and 6.66%; (compound 3.16 µM) 6.46% and 5.66% and 4.89%; (compound 10 µM) 6.43% and 6.71% and 6.08%. Moreover, the IC50 (curve of compound) is 197 nM and 176 nM and 196 nM.
